Measurements as given in the supplement of paper PMC4862054.

What was measured:
Assay in all cases: normalised response (% of control), CellTox Green; higher = less cell death (100 = DMSO, 0 = benzethonium chloride kill control)
Settings in all cases: incubation time: 72 h
CAL-85-1 = system: CAL-85-1
Outline: (§1)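 The table gives the normalised signal for a single concentration in each entry. Breast cancer cell lines were seeded (20 µl suspension) into 384-well plates holding compound at 5 concentrations in 10-fold steps over a compound-specific 10,000-fold range and incubated 72 h, then read for CellTox Green fluorescence (485/520 nm) and CellTiter-Glo luminescence. Normalisation on each plate used 0.1 % DMSO (100) and a positive kill control (0).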

DU-4475 = system: DU-4475
Outline: as §1

CAL-120 = system: CAL-120
Outline: as §1

MFM-223 = system: MFM-223
Outline: as §1

HDQ-P1 = system: HDQ-P1
Outline: as §1

MDA-MB-468 = system: MDA-MB-468
Outline: as §1

HCC1937 = system: HCC1937
Outline: as §1

MDA-MB-436 = system: MDA-MB-436
Outline: as §1

Hs578T = system: Hs578T
Outline: as §1

HCC1143 = system: HCC1143
Outline: as §1

CAL-51 = system: CAL-51
Outline: as §1

MDA-MB-453 = system: MDA-MB-453
Outline: as §1

CAL-148 = system: CAL-148
Outline: as §1

SMILES | normalised response (CAL-85-1) | normalised response (DU-4475) | normalised response (CAL-120) | normalised response (MFM-223) | normalised response (HDQ-P1) | normalised response (MDA-MB-468) | normalised response (HCC1937) | normalised response (MDA-MB-436) | normalised response (Hs578T) | normalised response (HCC1143) | normalised response (CAL-51) | normalised response (MDA-MB-453) | normalised response (CAL-148)
O=C(O)CC[C@H]1CC[C@@](c2cc(F)ccc2F)(S(=O)(=O)c2ccc(Cl)cc2)CC1 [MK-0752] (1000 nM) | 70.6% | 104% | 102% | 57.7% | 110% | 106% | 104% | 96.9% | 91.9% | 88.8% | 118% | – | –
CC(C)C(=O)Nc1ccc([N+](=O)[O-])c(C(F)(F)F)c1 [Flutamide] (10000 nM) | 103% | 98.6% | 98.1% | 89% | 92.3% | 124% | 101% | 75.1% | 124% | 96.4% | 100% | 102% | –
Cc1cc2c(F)c(Oc3ncnn4cc(OC[C@@H](C)O)c(C)c34)ccc2[nH]1 [Brivanib] (1000 nM) | 67.4% | 102% | 100% | 98.6% | 68.8% | 99.9% | 112% | 68.3% | 98.4% | 104% | 101% | 92.5% | 99.3%
C[C@]12C=CC(=O)C=C1CC[C@@H]1[C@@H]2C(=O)C[C@@]2(C)[C@H]1CC[C@]2(O)C(=O)CO [Prednisone] (10000 nM) | 91.9% | 103% | -48.9% | 100% | 114% | 99.5% | 98.8% | 107% | – | 118% | 109% | 100% | 100%
CC/C(=C(\c1ccccc1)c1ccc(OCCN(C)C)cc1)c1ccccc1 [Tamoxifen] (10000 nM) | – | 91.1% | 83.5% | 88% | 105% | 7.06% | 3.06% | – | 74.1% | 108% | 105% | 35.6% | 80.1%
Cc1c(N)nc([C@H](CC(N)=O)NC[C@H](N)C(N)=O)nc1C(=O)N[C@H](C(=O)N[C@H](C)[C@@H](O)[C@H](C)C(=O)N[C@H](C(=O)NCCc1nc(-c2nc(C(=O)NCCC[S+](C)C)cs2)cs1)[C@@H](C)O)[C@@H](OC1OC(CO)C(O)C(O)C1OC1OC(CO)C(O)C(OC(N)=O)C1O)c1cnc[nH]1 (stereo partly drawn) [Bleomycin] (10000 nM) | 81.7% | 92.1% | 99.4% | 94.4% | 95.6% | 201% | 80.1% | 68% | 24.7% | 93.6% | 43.9% | 90.6% | 47.9%
O=NN(CCCl)C(=O)NC1CCCCC1 [Lomustine] (10000 nM) | 108% | 98.9% | 92.5% | 103% | 98.9% | 77.9% | 57.4% | 86.5% | 113% | 108% | 108% | 100% | 94.2%
CCN(CC)CCOc1ccc(C(=C(Cl)c2ccccc2)c2ccccc2)cc1 [Clomifene] (10000 nM) | 25.3% | 53.4% | – | 40.9% | – | 93.8% | -34.5% | 89.1% | -60.1% | 112% | 109% | 18.9% | 79.6%
Nc1nc(Cl)nc2c1ncn2[C@@H]1O[C@H](CO)[C@@H](O)[C@@H]1F [Clofarabine] (10000 nM) | 60.5% | 89.1% | 105% | 102% | 112% | 73.1% | 75.6% | 65.6% | 142% | 106% | 40.6% | 95.2% | 65.1%
CC[C@@H]1C(=O)N(C)c2cnc(Nc3ccc(C(=O)N[C@H]4CC[C@H](N5CCN(CC6CC6)CC5)CC4)cc3OC)nc2N1C(C)C [Volasertib] (1000 nM) | 88.7% | 90.4% | 63.5% | 70.6% | 31.2% | 118% | 59.1% | 92.7% | -77.7% | -18.9% | 22.4% | 91.3% | 85.8%
NC(=O)NO [Hydroxyurea] (100000 nM) | 85.8% | 97.6% | 101% | 96.8% | 110% | 104% | 111% | – | – | 118% | 5.76% | 91.5% | 88.3%
